This note sets out measurements from US10772911B2, “Cell free compositions for cellular restoration and methods of making and using same” (Advanced ReGen Medical Technologies, LLC, priority 2013, dated 2020).

What all share (assay type): cell-based
In experiment [1] the test system is restored cells. Nature of the experiment: cell morphology in transwell co-culture. Particulars: co-cultured in the presence of 5 μM manumycin vs absence. An excerpt:
(§1) Receiver cell samples (i.e., R1, R2, and R3) were individually paired with donor cell samples (i.e., D1, D2, and D3) and the pairs co-cultured in a transwell culture cell for four weeks. The morphology of the cells was studied at 2 weeks into the co-culture and at 4 weeks of co-culture. Gene expression arrays, protein arrays, and telomere length experiments compared freshly defrosted cells from the collection tubes (referred to as the baseline donor cell sample or baseline receiver cell sample) with cells at the 4-week study endpoint (referred to as restored cell samples).
The nature of the soluble particles passing through the permeable membrane in the transwell co-culture experiments was investigated. Specifically, transwell co-culture experiments were carried out in the presence or absence of manumycin. Manumycin, -[(1S,5S,6R)-5-hydroxy-5-[(1E,3E,5E)-7-[(2-hydroxy-5-oxo-1-cyclopenten-1-yl)amino]-7-oxo-1,3,5-heptatrien-1-yl]-2-oxo-7-oxabicyclo[4.1.0]hept-3-en-3-yl]-2E,4E,6R-trimethyl, 2,4-decadienamide, is an antibiotic that acts a potent and selective farnesytransferase inhibitor. Mannumycin is also known to inhibit the release of exosomes. […] Further support for the role of exosome/microvesicles in mediating the disclosed cellular restoration process is shown in FIG. 12.

Experiment [2] concerns senescence-related genes. Nature of the experiment: quantitative PCR gene array of senescence-related genes. As to conditions: co-cultured in the presence of manumycin vs absence.
Text: as §1
(§2) Protein array analyses were carried out using conditioned media from the baseline donor cell sample or baseline receiver cell sample. The conditioned media was mixed with like cellular protein extracts and applied to the custom-designed arrays which consisted of antibody probes for 68 factors linked to cellular aging and senescence, collectively referred to as the senescence-associated secretory factors (SASF). Quantitative PCR gene array analyses were carried out by extracting RNA from the baseline samples or the co-cultured donor and receiver samples. The data presented represents the average metric determined for either the baseline donor cell sample, the baseline receiver cell sample, or the restored cell sample. […]

Experiment [3] relates to senescence-associated secretory factors (SASF). The experiment in a line: protein array of senescence-associated secretory factors. Particulars: co-cultured in the presence of manumycin vs absence; FIG. 11.
Text: as §1, §2

The test system of experiment [4] is telomere length. The experiment in a line: telomere length of restored cell sample. As to conditions: pair R1-D1, presence vs absence of manumycin; FIG. 12. An excerpt:
In an embodiment, the donor cell sample, receiver cell sample, or both are subjected to at least one analytical technique to characterize the quality of the cell sample. Herein, the “quality” of the cell sample refers to factors used to characterize the cellular health of the sample and includes parameters such as the number and types of cells present in the sample; the ratio of senescent to non-senescent cells in the sample; the extent of expression of a group of genetic and/or protein biomarkers; the average telomere length of the cells in the sample; and the status of the innate immune function of the cells in the sample. Telomere length may be determined using any suitable methodology, for example, terminal restriction fragment (TRF) analysis. Innate immune function may be evaluated using any suitable methodology such as the ^51Cr cytotoxicity release natural killer cell assay. The donor cell sample quality may be an assessment of the ability of the cells in the sample to improve and/or restore one or more cellular functions of the cells in the receiver cell sample.
Receiver cell samples (i.e., R1, R2, and R3) were individually paired with donor cell samples (i.e., D1, D2, and D3) and the pairs co-cultured in a transwell culture cell for four weeks. The morphology of the cells was studied at 2 weeks into the co-culture and at 4 weeks of co-culture. […]

For `CCCC[C@@H](C)/C=C(C)/C=C(\C)C(=O)NC1=C[C@@](O)(/C=C/C=C/C=C/C(=O)NC2=C(O)CCC2=O)[C@@H]2O[C@@H]2C1=O` [manumycin, -[(1S,5S,6R)-5-hydroxy-5-[(1E,3E,5E)-7-[(2-hydroxy-5-oxo-1-cyclopenten-1-yl)amino]-7-oxo-1,3,5-heptatrien-1-yl]-2-oxo-7-oxabicyclo[4.1.0]hept-3-en-3-yl]-2E,4E,6R-trimethyl, 2,4-decadienamide], the “morphology of restored cells” value in experiment [1] is “less robust morphology”. Also, in experiment [2], the “gene expression of restored cell samples” value was “did not display a change in expression levels similar to those observed in the absence of manumycin”. In experiment [3], the “protein expression levels of restored cell samples” value is “elevated levels of all proteins investigated”. For the same compound, the “telomere length of restored cell sample” value in experiment [4] was “decreased”.
